Experimental data as given in patent US9090628B2, “Benzoxazepin compounds selective for PI3K P110 delta and methods of use” (GENENTECH, INC., priority 2011, dated 2015).

What was measured:
p110 alpha = p110 alpha (Homo sapiens (Human), UniProt P42336); experiment: PI3K isoform inhibition assay, p110 alpha (for alpha/delta selectivity); details: ratio of biochemical IC50 values
Description: (§1) PI3K enzymatic activity was assayed by measuring the amount of product phosphatidylinositol 3,4,5-phosphate (PIP3) formed from substrate 4,5 phosphatidylinositol 4,5-phosphate (PIP2) using a fluorescence polarization displacement assay. The decrease in fluorescence polarization of a fluorescent PIP3 probe is measured as it is displaced from a PIP3-binding protein GRP-1 detector by PI3K-catalyzed product. […] The kinase reactions were initiated by the addition of 40 ng/mL p110α/p85α, 300 ng/mL p110β/p85α, 40 ng/mL p110γ, or 40 ng/mL p110δ/p85α (Upstate Group, Millipore; Dundee, UK), and 10 μM PIP2 (Echelon Biosciences) to the wells. […] After 60 minutes of incubation at room temperature to allow equilibration of labeled and unlabeled PIP3 binding, the parallel and perpendicular components of the fluorescence emissions from each sample were measured at an excitation wavelength of 530 nm and an emission wavelength of 590 nm using an Envision fluorescent plate reader with a rhodamine filter (PerkinElmer Life and Analytical Sciences; Wellesley, Mass.). The assay is capable of detecting 0.1-2.0 μM PIP3 product. The IC50 values were obtained by fitting the dose-dependent inhibition data to a 4-parameter equation using Assay Explorer software (MDL, San Ramon, Calif.).
The same protocol may be used to establish IC50 values for p110α (alpha) PI3K binding.
(§2) The four Class I PI 3-kinases are cloned into baculovirus vectors as follows: […]

p110 delta = p110 delta (Homo sapiens (Human), UniProt O00329); experiment: PI3K isoform inhibition assay, p110 delta (fluorescence polarization displacement); type: biochemical
p110 delta, sequence (O00329 whole entry, canonical isoform): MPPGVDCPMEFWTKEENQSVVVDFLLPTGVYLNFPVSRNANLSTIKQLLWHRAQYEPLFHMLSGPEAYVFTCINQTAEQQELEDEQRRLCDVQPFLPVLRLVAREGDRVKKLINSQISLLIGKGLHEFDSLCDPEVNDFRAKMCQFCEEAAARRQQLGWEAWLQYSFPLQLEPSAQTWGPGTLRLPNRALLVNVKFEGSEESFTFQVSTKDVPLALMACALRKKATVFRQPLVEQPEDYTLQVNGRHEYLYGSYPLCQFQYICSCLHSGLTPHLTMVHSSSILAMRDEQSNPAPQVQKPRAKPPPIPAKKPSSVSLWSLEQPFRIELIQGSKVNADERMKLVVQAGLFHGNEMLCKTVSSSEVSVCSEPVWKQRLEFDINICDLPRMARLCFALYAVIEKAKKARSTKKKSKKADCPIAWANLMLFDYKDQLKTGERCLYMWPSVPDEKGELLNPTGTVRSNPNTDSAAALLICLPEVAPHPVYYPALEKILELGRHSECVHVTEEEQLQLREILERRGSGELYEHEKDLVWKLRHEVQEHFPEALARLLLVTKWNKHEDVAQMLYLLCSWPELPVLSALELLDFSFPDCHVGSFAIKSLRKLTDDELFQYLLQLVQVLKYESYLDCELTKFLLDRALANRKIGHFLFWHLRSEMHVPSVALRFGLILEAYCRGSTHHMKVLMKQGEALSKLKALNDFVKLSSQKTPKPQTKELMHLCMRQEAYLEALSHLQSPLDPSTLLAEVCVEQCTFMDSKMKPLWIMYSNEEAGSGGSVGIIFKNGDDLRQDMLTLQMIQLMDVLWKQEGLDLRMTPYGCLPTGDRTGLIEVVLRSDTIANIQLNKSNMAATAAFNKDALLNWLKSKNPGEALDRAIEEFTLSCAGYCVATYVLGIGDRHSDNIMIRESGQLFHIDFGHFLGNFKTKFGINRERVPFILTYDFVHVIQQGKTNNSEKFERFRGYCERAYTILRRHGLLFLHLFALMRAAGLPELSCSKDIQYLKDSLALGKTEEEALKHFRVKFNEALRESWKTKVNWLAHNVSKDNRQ
p110 delta, sequence (P27986 whole entry partner, canonical isoform): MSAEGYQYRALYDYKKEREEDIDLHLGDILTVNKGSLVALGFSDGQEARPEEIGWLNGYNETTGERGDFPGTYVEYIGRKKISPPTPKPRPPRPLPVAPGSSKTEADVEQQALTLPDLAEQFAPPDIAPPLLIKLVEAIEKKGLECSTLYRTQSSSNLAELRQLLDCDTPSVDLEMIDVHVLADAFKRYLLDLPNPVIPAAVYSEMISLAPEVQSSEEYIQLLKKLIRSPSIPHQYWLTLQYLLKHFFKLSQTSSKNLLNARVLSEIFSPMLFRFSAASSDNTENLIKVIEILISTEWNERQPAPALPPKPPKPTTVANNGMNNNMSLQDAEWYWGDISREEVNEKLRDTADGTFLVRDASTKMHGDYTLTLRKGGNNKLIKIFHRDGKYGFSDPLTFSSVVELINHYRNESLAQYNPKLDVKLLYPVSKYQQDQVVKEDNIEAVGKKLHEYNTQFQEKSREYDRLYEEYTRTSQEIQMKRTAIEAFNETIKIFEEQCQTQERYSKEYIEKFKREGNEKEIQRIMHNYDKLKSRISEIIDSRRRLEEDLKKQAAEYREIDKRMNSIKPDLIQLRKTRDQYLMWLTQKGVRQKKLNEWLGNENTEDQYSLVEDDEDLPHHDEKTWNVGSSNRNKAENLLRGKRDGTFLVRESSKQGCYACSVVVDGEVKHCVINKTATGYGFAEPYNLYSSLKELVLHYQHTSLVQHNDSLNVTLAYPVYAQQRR
Description: as §1
The Formula I compound was serially diluted in 100% DMSO. The kinase reaction was incubated for 1 h at room temperature, and the reaction was terminated by the addition of PBS. IC50 values were subsequently determined using sigmoidal dose-response curve fit (variable slope).
as §2

p110 alpha, sequence (P42336 whole entry, canonical isoform): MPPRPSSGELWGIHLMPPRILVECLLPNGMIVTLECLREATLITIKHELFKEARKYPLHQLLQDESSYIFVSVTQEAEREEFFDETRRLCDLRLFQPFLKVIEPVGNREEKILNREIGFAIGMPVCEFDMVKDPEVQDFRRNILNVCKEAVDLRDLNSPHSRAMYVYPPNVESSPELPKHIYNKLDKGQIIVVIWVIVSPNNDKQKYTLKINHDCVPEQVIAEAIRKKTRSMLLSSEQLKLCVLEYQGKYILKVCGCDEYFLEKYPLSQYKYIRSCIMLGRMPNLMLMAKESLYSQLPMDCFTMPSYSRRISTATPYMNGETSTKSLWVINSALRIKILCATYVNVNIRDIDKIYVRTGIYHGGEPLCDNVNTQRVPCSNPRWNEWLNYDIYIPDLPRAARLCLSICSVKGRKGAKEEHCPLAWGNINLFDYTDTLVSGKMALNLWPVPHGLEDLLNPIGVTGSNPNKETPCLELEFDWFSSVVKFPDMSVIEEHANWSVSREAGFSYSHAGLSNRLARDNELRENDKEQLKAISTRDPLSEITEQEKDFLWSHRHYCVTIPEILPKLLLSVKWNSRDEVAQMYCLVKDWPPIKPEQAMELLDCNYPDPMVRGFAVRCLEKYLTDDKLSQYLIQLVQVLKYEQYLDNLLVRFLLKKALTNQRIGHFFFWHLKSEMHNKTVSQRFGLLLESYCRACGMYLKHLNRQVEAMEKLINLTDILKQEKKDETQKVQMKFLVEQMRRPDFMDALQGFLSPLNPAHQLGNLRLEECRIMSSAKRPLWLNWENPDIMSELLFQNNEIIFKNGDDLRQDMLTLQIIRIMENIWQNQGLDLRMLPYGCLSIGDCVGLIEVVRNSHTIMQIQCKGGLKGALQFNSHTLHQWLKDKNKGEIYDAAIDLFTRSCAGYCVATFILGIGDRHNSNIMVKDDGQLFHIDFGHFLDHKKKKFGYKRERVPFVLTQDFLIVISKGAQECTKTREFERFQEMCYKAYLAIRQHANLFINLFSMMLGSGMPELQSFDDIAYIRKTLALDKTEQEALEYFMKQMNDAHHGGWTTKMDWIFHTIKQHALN
p110 alpha, sequence (P27986 whole entry partner, canonical isoform): as the sequence (P27986 whole entry partner, canonical isoform) above

IC50 p110 alpha/IC50 p110 delta (p110 alpha)	IC50 (p110 delta)	SMILES
46.8	1.35 nM	Cc1nc(-c2cn3c(n2)-c2ccc(N4CCCC4C4CCCN(C)C4)cc2OCC3)n(C(C)C)n1 (centres unmarked) [Example 311, 2-(2-isopropyl-5-methyl-1,2,4-triazol-3-yl)-9-[2-(1-methyl-3-piperidyl)pyrrolidin-1-yl]-5,6-dihydroimidazo[1,2-d][1,4]benzoxazepine]
18.3	0.707 nM	CC(C)n1ncnc1-c1cn2c(n1)-c1cnc(N3CCCC3CN3CCCC3)cc1OCC2 (centres unmarked) [Example 105, 2-(1-isopropyl-1H-1,2,4-triazol-5-yl)-9-(2-(pyrrolidin-1-ylmethyl)pyrrolidin-1-yl)-5,6-dihydroimidazo[1,2-d]pyrido[3,4-f][1,4]oxazepine]
10.2	82.1 nM	Cc1nc(-c2cn3c(n2)-c2ccc(-c4ncnn4C4CCN(C(C)(C)C)CC4)cc2OCC3)n(C(C)C)n1 [Example 258, 9-(1-(1-tert-butylpiperidin-4-yl)-1H-1,2,4-triazol-5-yl)-2-(1-isopropyl-3-methyl-1H-1,2,4-triazol-5-yl)-5,6-dihydrobenzo[f]imidazo[1,2-d][1,4]oxazepine]
61.5	1.07 nM	CCN(CC)C1CCOC(c2c(-c3ccc4c(c3)OCCn3cc(-c5nc(C)nn5C(C)C)nc3-4)cnn2C)C1 (centres unmarked) [Example 339, N,N-diethyl-2-[4-[2-(2-isopropyl-5-methyl-1,2,4-triazol-3-yl)-5,6-dihydroimidazo[1,2-d][1,4]benzoxazepin-9-yl]-2-methyl-pyrazol-3-yl]tetrahydropyran-4-amine]
85.9	2.1 nM	Cc1nc(-c2cn3c(n2)-c2cc([C@H](C)N4CCN(C(C)(C)CO)CC4)ncc2OCC3)n(C(C)C)n1 [Example 364, (S)-2-(4-(1-(2-(1-isopropyl-3-methyl-1H-1,2,4-triazol-5-yl)-5,6-dihydroimidazo[1,2-d]pyrido[4,3-f][1,4]oxazepin-10-yl)ethyl)piperazin-1-yl)-2-methylpropan-1-ol]
15.7	3.13 nM	Cc1nc(-c2cn3c(n2)-c2cc(C(C)N4CCN(C)CC4)c(F)cc2OCC3)n(C(C)C)n1 (centres unmarked) [Example 373, 9-fluoro-2-(2-isopropyl-5-methyl-1,2,4-triazol-3-yl)-10-[1-(4-methylpiperazin-1-yl)ethyl]-5,6-dihydroimidazo[1,2-d][1,4]benzoxazepine]
46.4	0.415 nM	Cc1nc(-c2cn3c(n2)-c2cc(-c4ccnn4C4CCCN(C(C)(C)CO)C4)c(F)cc2OCC3)n(C(C)C)n1 [Example 355, (R)-2-(3-(5-(9-fluoro-2-(1-isopropyl-3-methyl-1H-1,2,4-triazol-5-yl)-5,6-dihydrobenzo[f]imidazo[1,2-d][1,4]oxazepin-10-yl)-1H-pyrazol-1-yl)piperidin-1-yl)-2-methylpropan-1-ol]
76.9	1.3 nM	Cc1nc(-c2cn3c(n2)-c2ccc(-c4ccnn4C4CC(C)N(C)C(C)C4)cc2OCC3)n(C(C)C)n1 (centres unmarked) [Example 282, 2-(2-isopropyl-5-methyl-1,2,4-triazol-3-yl)-9-[2-(1,2,6-trimethyl-4-piperidyl)pyrazol-3-yl]-5,6-dihydroimidazo[1,2-d][1,4]benzoxazepine]
10.8	17.9 nM	Cc1nc(-c2cn3c(n2)-c2cc(C(O)C4CCN(C)CC4)ccc2OCC3)n(C(C)C)n1 (centres unmarked) [Example 276, [2-(2-isopropyl-5-methyl-1,2,4-triazol-3-yl)-5,6-dihydroimidazo[1,2-d][1,4]benzoxazepin-10-yl]-(1-methyl-4-piperidyl)methanol]
54.6	0.705 nM	CC(C)n1nc(N)nc1-c1cn2c(n1)-c1ccc(-c3ccnn3C3CCN(C)CC3)cc1OCC2 [Example 298, 1-isopropyl-5-[9-[2-(1-methyl-4-piperidyl)pyrazol-3-yl]-5,6-dihydroimidazo[1,2-d][1,4]benzoxazepin-2-yl]-1,2,4-triazol-3-amine]
34	2.2 nM	Cc1nc(-c2cn3c(n2)-c2ccc(N4CCCC4C4CCN(CC(C)(C)O)CC4)cc2OCC3)n(C(C)C)n1 (centres unmarked) [Example 274, 1-[4-[1-[2-(2-isopropyl-5-methyl-1,2,4-triazol-3-yl)-5,6-dihydroimidazo[1,2-d][1,4]benzoxazepin-9-yl]pyrrolidin-2-yl]-1-piperidyl]-2-methyl-propan-2-ol]
49.9	0.986 nM	Cc1nc(-c2cn3c(n2)-c2ccc(N4CCCC4C4CCN(CC(C)(C)O)CC4)cc2OCC3)n(C(C)C)n1 (centres unmarked) [Example 272, 1-[4-[1-[2-(2-isopropyl-5-methyl-1,2,4-triazol-3-yl)-5,6-dihydroimidazo[1,2-d][1,4]benzoxazepin-9-yl]pyrrolidin-2-yl]-1-piperidyl]-2-methyl-propan-2-ol]
27.2	2.37 nM	CCN(CC)C1CCOC(c2c(-c3ccc4c(c3)OCCn3cc(-c5nc(C)nn5C(C)C)nc3-4)cnn2C)C1 (centres unmarked) [Example 333, N,N-diethyl-2-[4-[2-(2-isopropyl-5-methyl-1,2,4-triazol-3-yl)-5,6-dihydroimidazo[1,2-d][1,4]benzoxazepin-9-yl]-2-methyl-pyrazol-3-yl]tetrahydropyran-4-amine]
21.8	8.53 nM	Cc1nc(-c2cn3c(n2)-c2ccc(-c4ccnn4C4CCCN(Cc5ccccc5)C4)cc2OCC3)n(C(C)C)n1 (centres unmarked) [Example 262, 9-(1-(1-benzylpiperidin-3-yl)-1H-pyrazol-5-yl)-2-(1-isopropyl-3-methyl-1H-1,2,4-triazol-5-yl)-5,6-dihydrobenzo[f]imidazo[1,2-d][1,4]oxazepine]
23.9	2.9 nM	Cc1nc(-c2cn3c(n2)-c2ccc(OC4(CC5CC5)CNC4)cc2OCC3)n(C(C)C)n1 [Example 284, 9-[3-(cyclopropylmethyl)azetidin-3-yl]oxy-2-(2-isopropyl-5-methyl-1,2,4-triazol-3-yl)-5,6-dihydroimidazo[1,2-d][1,4]benzoxazepine]
54.6	0.236 nM	Cc1nc(-c2cn3c(n2)-c2ccc(N4CCCC45CCCN(C)C5)cc2OCC3)n(C(C)C)n1 (centres unmarked) [Example 320, 2-(2-isopropyl-5-methyl-1,2,4-triazol-3-yl)-9-(7-methyl-1,7-diazaspiro[4.5]decan-1-yl)-5,6-dihydroimidazo[1,2-d][1,4]benzoxazepine]
25.8	2.32 nM	Cc1nc(-c2cn3c(n2)-c2cc([C@H](C)N4CCN(C(C)C)CC4)c(F)cc2OCC3)n(C(C)C)n1 [Example 340, (S)-9-fluoro-2-(1-isopropyl-3-methyl-1H-1,2,4-triazol-5-yl)-10-(1-(4-isopropylpiperazin-1-yl)ethyl)-5,6-dihydrobenzo[f]imidazo[1,2-d][1,4]oxazepine]
151	0.314 nM	Cc1nc(-c2cn3c(n2)-c2cc(-c4ccnn4C4CCCN(C(C)(C)CO)C4)c(F)cc2OCC3)n(C(C)C)n1 [Example 353, (R)-2-(3-(5-(9-fluoro-2-(1-isopropyl-3-methyl-1H-1,2,4-triazol-5-yl)-5,6-dihydrobenzo[f]imidazo[1,2-d][1,4]oxazepin-10-yl)-1H-pyrazol-1-yl)piperidin-1-yl)-2-methylpropan-1-ol]
45.5	1.05 nM	COc1cc2c(cc1[C@@H](C)N1CCN(C(C)(C)C)CC1)-c1nc(-c3nc(C)nn3C(C)C)cn1CCO2 [Example 356, (R)-10-(1-(4-tert-butylpiperazin-1-yl)ethyl)-2-(1-isopropyl-3-methyl-1H-1,2,4-triazol-5-yl)-9-methoxy-5,6-dihydrobenzo[f]imidazo[1,2-d][1,4]oxazepine]
29.4	0.178 nM	Cc1nc(-c2cn3c(n2)-c2ccc(N4CCCC45CCCN(C)C5)cc2OCC3)n(C(C)C)n1 (centres unmarked) [Example 318, 2-(2-isopropyl-5-methyl-1,2,4-triazol-3-yl)-9-(7-methyl-1,7-diazaspiro[4.5]decan-1-yl)-5,6-dihydroimidazo[1,2-d][1,4]benzoxazepine]

SMILES	IC50 p110 alpha/IC50 p110 delta (p110 alpha)	IC50 (p110 delta)
Cc1nc(-c2cn3c(n2)-c2cc([C@H](C)N4CCN(C(C)(C)C)CC4)ncc2OCC3)n(C(C)C)n1 [Example 303, (S)-10-(1-(4-tert-butylpiperazin-1-yl)ethyl)-2-(1-isopropyl-3-methyl-1H-1,2,4-triazol-5-yl)-5,6-dihydroimidazo[1,2-d]pyrido[4,3-f][1,4]oxazepine]	113	1.92 nM
Cc1nc(-c2cn3c(n2)-c2cc([C@H](C)N4CCN(C(C)(C)C)CC4)c(F)cc2OCC3)n(C(C)C)n1 [Example 297, (S)-10-(1-(4-tert-butylpiperazin-1-yl)ethyl)-9-fluoro-2-(1-isopropyl-3-methyl-1H-1,2,4-triazol-5-yl)-5,6-dihydrobenzo[f]imidazo[1,2-d][1,4]oxazepine]	102	2.42 nM
